Assay results published in ChEMBL document CHEMBL5543134, “Channeling Nicotinamide Phosphoribosyltransferase (NAMPT) to Address Life and Death” (J Med Chem, 2024).

Tests used:
HCT-116 [1] = test: Antitumor activity against human HCT-116 cells assessed as decrease in intracellular NAD level at 30 uM measured after 12 to 24 hrs by absorbance based assay; assay type: functional; parameters: scale not given: the % may be the effect or the level left; settings: time 12-24 hrs
A2780 = test: cells; settings: Homo sapiens, A2780, 72 h
[2] = target: Nicotinamide phosphoribosyltransferase (Homo sapiens, UniProt P43490); test: Inhibition of NAMPT (unknown origin) using NAM and PRPP as substrates incubated for 2 hrs in presence of ATP by fluorimetric plate reader assay
[3] = target: Nicotinamide phosphoribosyltransferase (Mus musculus, UniProt Q99KQ4); test: Inhibition of N-terminal His-tagged mouse NAMPT transformed in Escherichia coli Rosetta cells
HCT-116 [4] = test: cells; settings: Homo sapiens, HCT-116, 48 h
[5] = Cmax in ICR mouse at 10 mg/kg, iv by LC-MS/MS analysis; assay type: ADME, organism-based; settings: in vivo
[6] = Cmax in Sprague-Dawley rat plasma at 60 mg/kg, ip measured up to 48 hrs by LC-MS/MS analysis; assay type: ADME, organism-based

Chain of Nicotinamide phosphoribosyltransferase (Mus musculus, UniProt Q99KQ4) (Q99KQ4 whole entry): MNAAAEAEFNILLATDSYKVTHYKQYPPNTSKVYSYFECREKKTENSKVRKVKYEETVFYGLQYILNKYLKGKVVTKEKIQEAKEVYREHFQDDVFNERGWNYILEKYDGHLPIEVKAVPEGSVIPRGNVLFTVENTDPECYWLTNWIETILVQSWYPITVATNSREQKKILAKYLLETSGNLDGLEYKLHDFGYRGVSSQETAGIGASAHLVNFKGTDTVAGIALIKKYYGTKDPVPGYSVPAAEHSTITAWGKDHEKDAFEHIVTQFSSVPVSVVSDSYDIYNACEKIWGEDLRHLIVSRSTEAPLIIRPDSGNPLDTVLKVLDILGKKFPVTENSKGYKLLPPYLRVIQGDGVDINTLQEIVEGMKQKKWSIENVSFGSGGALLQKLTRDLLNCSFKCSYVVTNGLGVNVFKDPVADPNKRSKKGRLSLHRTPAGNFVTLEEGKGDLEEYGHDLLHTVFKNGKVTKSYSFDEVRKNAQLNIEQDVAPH
Chain of Nicotinamide phosphoribosyltransferase (Homo sapiens, UniProt P43490) (P43490 whole entry): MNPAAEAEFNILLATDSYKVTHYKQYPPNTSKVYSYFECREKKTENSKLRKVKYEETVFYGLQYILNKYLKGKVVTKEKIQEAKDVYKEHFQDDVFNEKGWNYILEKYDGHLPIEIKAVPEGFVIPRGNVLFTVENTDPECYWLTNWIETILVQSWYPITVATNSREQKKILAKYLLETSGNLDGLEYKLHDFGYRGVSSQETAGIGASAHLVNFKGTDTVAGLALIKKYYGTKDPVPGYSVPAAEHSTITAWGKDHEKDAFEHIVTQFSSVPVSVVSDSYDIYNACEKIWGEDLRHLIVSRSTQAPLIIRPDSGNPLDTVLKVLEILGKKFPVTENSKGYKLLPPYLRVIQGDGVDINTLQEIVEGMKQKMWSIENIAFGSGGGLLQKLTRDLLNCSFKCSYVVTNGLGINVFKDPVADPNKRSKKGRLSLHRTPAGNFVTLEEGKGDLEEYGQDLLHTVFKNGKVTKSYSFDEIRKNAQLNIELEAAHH

Nc1cc(F)ccc1NC(=O)c1ccc(CNC(=O)/C=C/c2cccnc2)cc1 [TUCIDINOSTAT]
Activity (HCT-116 [1]): 50%

CCOC(=O)c1ccc(NC(=S)NCc2ccncc2)cc1
IC50 (A2780): 1000 nM

O=C(NCc1ccncc1)Nc1ccc(S(=O)(=O)N2C[C@H]3CC[C@@H](C2)O3)cc1
IC50 [2]: 279 nM

CCN(CC)C(=O)c1noc2cc(NC(=O)NCc3cnco3)ccc12
IC50 [3]: 1490 nM

CCOC(=O)c1ccc(NC(=O)NCc2ccncc2)cc1
IC50 (A2780): 320 nM

CCN(CC)S(=O)(=O)c1ccc(NC(=O)NCc2ccncc2)cc1
IC50 (A2780): 364 nM

Cn1nccc1-c1nc2ccc(NC(=O)NCc3ccncc3)cn2n1
IC50 (A2780): 160 nM

C#CCN(Cc1cc2c(=O)n(C)c(CN3CCN(CCN)CC3)nc2cc1Cl)c1ccc(C(=O)NCc2cccnc2)cc1
IC50 (HCT-116 [4]): 0.68 nM

O=S(=O)(c1ccc(NC(=S)NCc2ccncc2)cc1)N1CCCCC1
IC50 (A2780): > 10 nM

O=C(/C=C/c1cccnc1)NCCCCC1CCN(C(=O)c2ccccc2)CC1 [DAPORINAD]
Cmax [5]: 14 µM | Cmax [6]: 6.7 µM
